Assay results reported in the supplement of paper PMC10307832.

Columns and labels:
Assay in all cases: relative viability (nuclei count vs DMSO), 5 days (fraction); higher = more cells survive
Linifanib + Palbociclib = compound: Cc1ccc(F)c(NC(=O)Nc2ccc(-c3cccc4[nH]nc(N)c34)cc2)c1 [Linifanib] + CC(=O)c1c(C)c2cnc(Nc3ccc(N4CCNCC4)cn3)nc2n(C2CCCC2)c1=O [Palbociclib] (partner 0.5 µM)
How it was run: (§1)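 Dosing by pin tool came one day after lung cancer cell lines were seeded in 1536-well plates, using either one drug or a fixed anchor-drug dose plus five library-drug doses (not always all listed) in √10 steps. After 5 days, nuclei were counted on 4× images. Relative viability is treated-well nuclei count divided by vehicle-well nuclei count, and values are medians of duplicate plates.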

Linifanib + Navitoclax = compound: Cc1ccc(F)c(NC(=O)Nc2ccc(-c3cccc4[nH]nc(N)c34)cc2)c1 [Linifanib] + CC1(C)CCC(c2ccc(Cl)cc2)=C(CN2CCN(c3ccc(C(=O)NS(=O)(=O)c4ccc(N[C@H](CCN5CCOCC5)CSc5ccccc5)c(S(=O)(=O)C(F)(F)F)c4)cc3)CC2)C1 [Navitoclax] (partner 0.5 µM)
How it was run: as §1

Linifanib + Foretinib = compound: Cc1ccc(F)c(NC(=O)Nc2ccc(-c3cccc4[nH]nc(N)c34)cc2)c1 [Linifanib] + COc1cc2c(Oc3ccc(NC(=O)C4(C(=O)Nc5ccc(F)cc5)CC4)cc3F)ccnc2cc1OCCCN1CCOCC1 [Foretinib] (partner 0.25 µM)
How it was run: as §1

Linifanib + Pictilisib = compound: Cc1ccc(F)c(NC(=O)Nc2ccc(-c3cccc4[nH]nc(N)c34)cc2)c1 [Linifanib] + CS(=O)(=O)N1CCN(Cc2cc3nc(-c4cccc5[nH]ncc45)nc(N4CCOCC4)c3s2)CC1 [Pictilisib] (partner 1 µM)
How it was run: as §1

Linifanib + Linsitinib = compound: Cc1ccc(F)c(NC(=O)Nc2ccc(-c3cccc4[nH]nc(N)c34)cc2)c1 [Linifanib] + C[C@]1(O)C[C@@H](c2nc(-c3ccc4ccc(-c5ccccc5)nc4c3)c3c(N)nccn32)C1 [Linsitinib] (partner 1 µM)
How it was run: as §1

Linifanib + Pemetrexed = compound: Cc1ccc(F)c(NC(=O)Nc2ccc(-c3cccc4[nH]nc(N)c34)cc2)c1 [Linifanib] + Nc1nc2[nH]cc(CCc3ccc(C(=O)N[C@@H](CCC(=O)O)C(=O)O)cc3)c2c(=O)[nH]1 [Pemetrexed] (partner 0.2 µM)
How it was run: as §1

| Cell Line | relative viability (Linifanib + Palbociclib; first compound 0.03162 µM) | relative viability (Linifanib + Palbociclib; first compound 0.1 µM) | relative viability (Linifanib + Palbociclib; first compound 0.3162 µM) | relative viability (Linifanib + Navitoclax; first compound 0.03162 µM) | relative viability (Linifanib + Navitoclax; first compound 0.1 µM) | relative viability (Linifanib + Navitoclax; first compound 0.3162 µM) | relative viability (Linifanib + Foretinib; first compound 0.03162 µM) | relative viability (Linifanib + Foretinib; first compound 0.1 µM) | relative viability (Linifanib + Foretinib; first compound 0.3162 µM) | relative viability (Linifanib + Pictilisib; first compound 0.03162 µM) | relative viability (Linifanib + Pictilisib; first compound 0.1 µM) | relative viability (Linifanib + Pictilisib; first compound 0.3162 µM) | relative viability (Linifanib + Linsitinib; first compound 0.03162 µM) | relative viability (Linifanib + Linsitinib; first compound 0.1 µM) | relative viability (Linifanib + Linsitinib; first compound 0.3162 µM) | relative viability (Linifanib + Pemetrexed; first compound 0.03162 µM) | relative viability (Linifanib + Pemetrexed; first compound 0.1 µM) | relative viability (Linifanib + Pemetrexed; first compound 0.3162 µM) |
| --- | --- | --- | --- | --- | --- | --- | --- | --- | --- | --- | --- | --- | --- | --- | --- | --- | --- | --- |
| NCI-H1395 | 0.656 | 0.673 | 0.691 | 1.19 | 1.17 | 1.21 | 0.967 | 1.05 | 0.998 | 0.676 | 0.715 | 0.525 | 1.06 | 1.08 | 1.09 | 0.92 | 1.02 | 0.825 |
| NCI-H1437 | 0.344 | 0.331 | 0.311 | 1.1 | 1.12 | 1.07 | 1.27 | 1.25 | 1.19 | 0.529 | 0.495 | 0.471 | 1.03 | 1.14 | 0.814 | 0.323 | 0.339 | 0.286 |
| NCI-H1651 | 0.536 | 0.527 | 0.487 | 0.91 | 1.24 | 0.999 | 0.774 | 1.04 | 0.66 | 0.591 | 0.582 | 0.355 | 0.997 | 1.14 | 0.9 | 0.648 | 0.612 | 0.561 |
| NCI-H1666 | 0.649 | 0.647 | 0.693 | 0.982 | 0.948 | 1.17 | 0.923 | 0.969 | 0.998 | 0.492 | 0.419 | 0.402 | 0.66 | 0.869 | 0.803 | 0.943 | 0.876 | 0.892 |
| NCI-H1734 | 0.322 | 0.357 | 0.394 | 0.851 | 0.808 | 0.789 | 0.87 | 0.989 | 0.856 | 0.501 | 0.526 | 0.373 | 0.869 | 0.925 | 0.849 | 0.401 | 0.447 | 0.45 |
| NCI-H1755 | 0.47 | 0.461 | 0.429 | 0.931 | 1.06 | 0.949 | 0.934 | 0.912 | 0.902 | 0.493 | 0.503 | 0.397 | 0.953 | 1.01 | 0.999 | 0.457 | 0.465 | 0.474 |
| NCI-H1793 | 0.31 | 0.349 | 0.292 | 0.553 | 0.429 | 0.444 | 0.843 | 0.953 | 0.734 | 0.336 | 0.285 | 0.332 | 0.897 | 0.976 | 0.817 | 0.939 | 1.17 | 1.07 |
| NCI-H1915 | 0.541 | 0.548 | 0.507 | 0.78 | 0.821 | 0.788 | 1.08 | 1.15 | 1.04 | 1.04 | 0.923 | 0.892 | 1.12 | 1.09 | 1.08 | 0.588 | 0.502 | 0.502 |
